For data set [1], the target named is SARS-COV-2 3CLpro/Mpro protease (Severe acute respiratory syndrome coronavirus 2 (2019-nCoV) (SARS-CoV-2), UniProt P0DTD1). The data set is described as follows: Inhibitory effect on SARS-COV-2 3CLpro/Mpro protease by fluorescence resonance energy transfer. The class given is biochemical. Particulars: activity intervals A-D.
The nature of a further data set: in vivo. Conditions: male, CD1, mouse.
Data set [2] in a line: Pharmacokinetics in vivo experiment in CD1 mice. Particulars: oral administration, 10 mg/kg.
Data set [3] in a line: Pharmacokinetics in vivo experiment in cynomolgus macaques. Conditions: male, cynomolgus monkey, 10 mg/kg. Here is the method:
• Basic information of animals • Species: cynomolgus macaque • Grade: conventional grade • Quantity: 18 cynomolgus macaques (male) were used in the drug administration experiment. • Weight: about 2.5 to 4.5 kg • Age: 3 to 5 years old • Source: Huazhen Animal Farm, Conghua City (General Partnership)
There are 9 male cynomolgus macaques, 3 cynomolgus macaques/group, 3 groups in total. The animals were fasted for 12 hours before administration, and the test solution was administered by gavage (10 mg/kg), and the administration volume was 2.5 mL/kg.
The blood was placed on wet ice, and centrifuged at 1700 g at 4° C. for 10 min within 1.5 h after collection. After centrifugation, the plasma was taken and added into a detection tube. Plasma samples can be stored in a refrigerator below-20° C. within 2 hours after centrifugation.
WinNonlin 8.1.0.3530 was used to calculate pharmacokinetic parameters.

The conditions of data set [4]: male, CD1, mouse, in vivo, po, 10 mg/kg.

Results on two molecules are retold here after patent US20250042889A1, “3CLPRO PROTEASE INHIBITOR” (SHANGHAI QILU PHARMACEUTICAL RESEARCH AND DEVELOPMENT …, priority 2021, published 2025).

Read-outs that look alike come from different tables or passages of the source.

Take `CNc1cncc(C(=O)N2CCC[C@@H](Nc3c(C(=O)N4C5CCCC4COC5)cc(Br)cc3[N+](=O)[O-])C2)c1` [Example 312]: in data set [1] (IC50 (nM), Inhibition on SARS-CoV-2 3CLpro/Mpro protease), the IC50 was in the range of 10 to 50 nM. Moreover, in the data set “in vivo” (in vivo, iv, 1 mg/kg), the AUC – broadly, concentration integrated over time – worked out at 95 ng·h/mL; the Vd (commonly a proportionality between amount in the body and measured concentration, not a real space) was determined as 1.38 L/kg; the clearance (commonly the rate of elimination divided by the concentration) worked out at 10.6 mL/min/kg; the half-life (commonly the time needed for the level to fall by half in the phase considered) was 7.68 min. In the data set “in vivo” (in vivo, po, 10 mg/kg), the AUC amounted to 605 ng·h/mL; the Cmax – broadly, the maximum level reached in the sampled fluid or tissue – worked out at 594 ng/mL; the half-life was 46.1 min. Also, the F in data set [2] is 65.5%.
Take `CNc1cncc(C(=O)N2CCC[C@@H](Nc3c(C(=O)N4C[C@@H](C)O[C@@H](C)C4)cc(Br)cc3[N+](=O)[O-])C2)c1` [Example 34, (5-Bromo-2-((R)-1-(5-(methylamino)nicotinoyl)piperidin-3-yl)amino)-3-nitrophenyl ((2R,6S)-2,6-dimethylmorpholinyl)methanone]: the IC50 in data set [1] (read-out: IC50 (nM), Inhibition on SARS-CoV-2 3CLpro/Mpro protease) is 10 to 50 nM. Besides, the AUC in data set [3] (in vivo, po) was determined as 4090 ng·h/mL; in “in vivo” (in vivo, iv, 1 mg/kg) it was 107 ng·h/mL; in “in vivo” (in vivo, po, 10 mg/kg) it was 702 ng·h/mL. Moreover, the Cmax in data set [3] (in vivo, po) is 1960 ng/mL; in the data set “in vivo” (in vivo, po, 10 mg/kg) it was 1020 ng/mL. Besides, the Tmax (in general, the time at which the peak concentration occurs) in data set [3] (in vivo, po) was 79.8 min. Further, the half-life in data set [3] (plasma, cynomolgus macaque, oral administration) is 35 min; in the data set “in vivo” (plasma, iv, 1 mg/kg), 6.84 min; in the data set “in vivo” (plasma, po, 10 mg/kg), 30 min. Also, the F in data set [4] amounted to 63%. Also, in the data set “in vivo” (in vivo, iv, 1 mg/kg), the Vd was 1.02 L/kg. In addition, the clearance in the data set “in vivo” (in vivo, iv, 1 mg/kg) stood at 9.4 mL/min/kg.
